Each structure is given as a SMILES string.

The CC50 is the concentration giving 50% cytotoxicity. Low readings indicate greater toxicity to the cells, high ones lower toxicity to the cells. Usually EC50 stands for the concentration at which the effect is half-maximal.

The nature of data set [1]: Compound cytotoxicity, XTT-based colorimetric assay. It is filed as cell-based. Particulars: human, uninfected MT2 cells, day 4, XTT. The method in brief:
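Run under the antiviral-assay protocol but without virus. Viability was read on day 4 and CC50 values were derived from the readout.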

The subject of data set [2] is recombinant NL4-3 virus (nef section replaced with Renilla luciferase gene) in MT-2 cells. As to the kind of experiment: HIV cell culture assay (antiviral activity, luciferase readout). The note with it: Renilla, NL43, MT-2 cells infected for 4-5 days with recombinant NL4-3 Renilla luciferase virus, serial dilutions of compound. It is filed as cell-based. The method in brief: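 Test compound in serial dilution was present while MT-2 cells were infected for 4–5 days with recombinant NL4-3 virus made in 293T cells. Antiviral activity was quantified as Renilla luciferase activity, read with a live-cell substrate. EC50 came from the median-effect equation.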

`Cc1cccc(C)c1-c1ccc2c(=O)n(-c3ccc(S(=O)(=O)N4CCOCC4)cc3)c([C@H](Cc3cc(F)cc(F)c3)NC(=O)Cn3ccc(C4CC4)n3)nc2c1` [Example 49, (S)-2-(3-cyclopropyl-1H-pyrazol-1-yl)-N-(2-(3,5-difluorophenyl)-1-(7-(2,6-dimethylphenyl)-3-(4-(morpholinosulfonyl)phenyl)-4-oxo-3,4-dihydroquinazolin-2-yl)ethyl)acetamide] came in with a 50% cytotoxic concentration (CC50) at 4 day in data set [1] of more than 1000 nM. The EC50 in data set [2] came to 30 nM.

Regarding `Cc1cccc(-c2ccc3c(=O)n(-c4ccc(Cl)c5c(NS(=O)(=O)C6CC6)nn(CC(F)F)c45)c([C@H](Cc4cc(F)cc(F)c4)NC(=O)Cn4nc(C(F)F)c5c4C(F)(F)[C@@H]4C[C@H]54)nc3c2)n1` [Example 158, N-((S)-1-(3-(4-chloro-3-(cyclopropanesulfonamido)-1-(2,2-difluoroethyl)-1H-indazol-7-yl)-7-(6-methylpyridin-2-yl)-4-oxo-3,4-dihydroquinazolin-2-yl)-2-(3,5-difluorophenyl)ethyl)-2-((3bS,4aR)-3-(difluoromethyl)-5,5-difluoro-3b,4,4a,5-tetrahydro-1H-cyclopropa[3,4]cyclopenta[1,2-c]pyrazol-1-yl)acetamide], the CC50 at 4 day in data set [1] is more than 500 nM. The EC50 in data set [2] is 0.14 nM.

`Cn1nc(NS(C)(=O)=O)c2c(Cl)ccc(-n3c([C@H](Cc4cc(F)cc(F)c4)NC(=O)Cn4nc(C(F)F)c5c4C(F)(F)[C@@H]4C[C@H]54)nc4cc(-c5cccc(C(C)(C)C)c5)ccc4c3=O)c21` (atropisomer, axis not shown; (aR)) [Example 45, N-((S)-1-(7-(3-(tert-butyl)phenyl)-3-(4-chloro-1-methyl-3-(methylsulfonamido)-1H-indazol-7-yl)-4-oxo-3,4-dihydroquinazolin-2-yl)-2-(3,5-difluorophenyl)ethyl)-2-((3bS,4aR)-3-(difluoromethyl)-5,5-difluoro-3b,4,4a,5-tetrahydro-1H-cyclopropa[3,4]cyclopenta[1,2-c]pyrazol-1-yl)acetamide] returned a cytotoxic concentration (CC50) at 4 day in data set [1] of more than 1000 nM. Besides, the EC50 in data set [2] is 4.5 nM.

For the compound `Cc1nn(C)c(C)c1-c1ccc2c(=O)n(-c3ccc(Cl)c4c(NS(C)(=O)=O)nn(C)c34)c([C@H](Cc3cc(F)cc(F)c3)NC(=O)Cn3nc(C(F)F)c4c3C(F)(F)[C@@H]3C[C@H]43)nc2c1` (atropisomer, axis not shown; (aR)) [Example 60, N-((S)-1-(3-(4-chloro-1-methyl-3-(methylsulfonamido)-1H-indazol-7-yl)-4-oxo-7-(1,3,5-trimethyl-1H-pyrazol-4-yl)-3,4-dihydroquinazolin-2-yl)-2-(3,5-difluorophenyl)ethyl)-2-((3bS,4aR)-3-(difluoromethyl)-5,5-difluoro-3b,4,4a,5-tetrahydro-1H-cyclopropa[3,4]cyclopenta[1,2-c]pyrazol-1-yl)acetamide], in data set [1], the CC50 at 4 day was more than 1000 nM. Besides, the concentration for a half-maximal effect (EC50) in data set [2] stood at 0.32 nM.

In the case of `O=C(Cn1ccc(C2CC2)n1)N[C@@H](Cc1cc(F)cc(F)c1)c1nc2cc(-c3cccc(F)c3F)ccc2c(=O)n1-c1ccc(S(=O)(=O)N2CCOCC2)cc1` [Example 74, (S)-2-(3-cyclopropyl-1H-pyrazol-1-yl)-N-(2-(3,5-difluorophenyl)-1-(7-(2,3-difluorophenyl)-3-(4-(morpholinosulfonyl)phenyl)-4-oxo-3,4-dihydroquinazolin-2-yl)ethyl)acetamide], the CC50 at 4 day in data set [1] was more than 1000 nM. The EC50 in data set [2] is 16 nM.

Source of the values: US11505543B2, “4-oxo-3,4-dihydroquinazoline compounds as inhibitors of human immunodeficiency virus replication” (VIIV HEALTHCARE UK (NO.5) LIMITED, priority 2018, dated 2022).
